{"source": "ChEMBL document CHEMBL4680067", "about": "“Identification of LASSBio-1945 as an inhibitor of SARS-CoV-2 main protease (MPRO) through in silico screening supported by molecular docking and a fragment-based pharmacophore model” (RSC Med Chem, 2021)", "key": {"SARS-CoV-2": {"system": "SARS-CoV-2", "assay": "Antiviral activity against SARS CoV-2 infected in African green monkey Vero cells assessed as inhibition of viral replication measured after 72 hrs by qRT-PCR analysis", "type": "functional, organism-based", "details": "Severe acute respiratory syndrome coronavirus 2, Vero; call rule not given here"}, "[1]": {"assay": "Inhibition of SARS CoV-2 main protease by rapidfire high-throughput mass spectrometry", "set-up": "species or system Severe acute respiratory syndrome coronavirus 2"}, "[2]": {"system": "Severe acute respiratory syndrome coronavirus 2", "assay": "Inhibition of SARS CoV-2 main protease at 50 uM by rapidfire high-throughput mass spectrometry relative to control"}, "[3]": {"assay": "Inhibition of SARS CoV-2 main protease", "set-up": "species or system Severe acute respiratory syndrome coronavirus 2"}}, "data": [{"smiles": "Cc1cc(C(=O)N[C@@H](C)C(=O)N[C@H](C(=O)N[C@@H](CC(C)C)C(=O)N[C@H](/C=C/C(=O)OCc2ccccc2)C[C@@H]2CCNC2=O)C(C)C)no1", "values": [{"measurement": "EC50", "setting": "SARS-CoV-2", "value": 16.8, "unit": "µM"}]}, {"smiles": "O=C(Cc1cccc(Cl)c1)Nc1cccnc1", "values": [{"measurement": "IC50", "setting": "[1]; read-out: IC50", "value": 53.7, "unit": "µM"}]}, {"smiles": "CCCc1cc2c(cc1S(=O)(=O)N1CCN(c3ccccc3)CC1)OCO2", "values": [{"measurement": "IC50", "setting": "[1]; read-out: IC50", "value": 16, "unit": "µM"}, {"measurement": "inhibition", "setting": "[2]", "value": 68.3, "unit": "%"}]}, {"smiles": "O=C(Nc1ccccc1)Nc1cnc2ccc([N+](=O)[O-])cc2n1", "values": [{"measurement": "inhibition", "setting": "[2]", "value": 0.77, "unit": "%"}]}, {"smiles": "O=C(CNc1c(-c2ccccc2)nc2ccccn12)N/N=C/c1cccc2ccccc12", "values": [{"measurement": "inhibition", "setting": "[2]", "value": 7.53, "unit": "%"}]}, {"smiles": "Cc1[nH]c2ccccc2c1/C=N/N(C)C(=O)c1ccc2c(c1)OCO2", "values": [{"measurement": "inhibition", "setting": "[2]", "value": -6.66, "unit": "%"}]}, {"smiles": "COc1ccc(/N=C2/C(=O)N(Cc3ccc4ccccc4c3)c3ccc(C(N)=O)cc32)cc1", "values": [{"measurement": "IC50", "setting": "[3]", "value": 17, "unit": "µM"}]}, {"smiles": "Cc1ncccc1NC(=O)Cc1cccc(Cl)c1", "values": [{"measurement": "IC50", "setting": "[1]", "value": "Not Active"}]}, {"smiles": "Cc1csc(C(=O)N/N=C/c2cccnc2)c1N", "values": [{"measurement": "inhibition", "setting": "[2]", "value": -6.32, "unit": "%"}]}, {"smiles": "Cc1ccc(NC(=O)Cc2cccc(Cl)c2)cn1", "values": [{"measurement": "IC50", "setting": "[1]", "value": "Not Active"}]}]}
